Experimental data as given in US20130089536A1, “PHARMACEUTICAL COMPOSITION TO PREVENT AND TREAT ALZHEIMER'S DISEASE COMPRISING GCP II MUTANT” (KOREA CENTER FOR DISEASE CONTROL AND PREVENTION, priority 2011, published 2013).
“Also recorded” adds a separate entry of the source.

Tests used:
Aβ1-40 and Aβ1-42 = Aβ1-40 and Aβ1-42 levels in cortical membrane fractions of 2-PMPA treated APP Swedish/PS1ΔE9 transgenic mice (ELISA); type: in vivo, mouse; conditions: 10 mg/kg intraperitoneally, 2×/wk for 1 month, 8-month old APP Swedish/PS1ΔE9 mice, FIG. 1e
Procedure: (§1) (a, b) rhGCP II was incubated with Aβ40 or NAAG with or without 2-PMPA or EDTA. A(340 or NAAG level was detected by ELISA or NAAG cleavage assay. (c) After lentiviral GCP II was infected into rat primary astrocytes, monomeric Aβ40 was treated to cells. And 2-PMPA was treated thereto at various doses. The Aβ40 concentration in cell growth medium was measured by ELISA assay. (d, e) Eight-month old APP Swedish/PS1E9 transgenic mice were injected intraperitoneally with 10 mg/kg of 2-PMPA or PBS 2/wk for 1 month (9 times). Membrane fractions were analyzed by NAAG and ELISA assay.
Vectors encoding the hGCP II and various mutant hGCP II genes were transfected into PC3 cells in a 12-well plate. About 30 hr later, the culture medium was changed with fresh one treated with Aβ1-40 of Aβ1-42 peptide in the presence or absence of 2-PMPA, and the cells were incubated for another 8 hr. […]
To investigate the effect of 2-PMPA in the mouse brain, 8-month old APP Swedish/PS1Δ9 mice transfected by the same manner as described in Example <1-6> were treated nine times with 2-PMPA (10 mg/kg, intraperitoneally, 2/wk for 1 month) or the same amount of PBS. Aβp1-40 and Aβ1-42 levels in the cortical membrane fractions were analyzed by the same manner as described in Example <1-3>. NAAG cleavage activity of GCP II was measured by the same manner as described in Example <1-4>.

lentiviral GCP II = biological target: T1, lentiviral GCP II (Homo sapiens, UniProt Q04609); type: cell-based
T1 construct: host or cells: rat primary astrocytes (lentiviral infection)
T1 sequence (Q04609 whole entry): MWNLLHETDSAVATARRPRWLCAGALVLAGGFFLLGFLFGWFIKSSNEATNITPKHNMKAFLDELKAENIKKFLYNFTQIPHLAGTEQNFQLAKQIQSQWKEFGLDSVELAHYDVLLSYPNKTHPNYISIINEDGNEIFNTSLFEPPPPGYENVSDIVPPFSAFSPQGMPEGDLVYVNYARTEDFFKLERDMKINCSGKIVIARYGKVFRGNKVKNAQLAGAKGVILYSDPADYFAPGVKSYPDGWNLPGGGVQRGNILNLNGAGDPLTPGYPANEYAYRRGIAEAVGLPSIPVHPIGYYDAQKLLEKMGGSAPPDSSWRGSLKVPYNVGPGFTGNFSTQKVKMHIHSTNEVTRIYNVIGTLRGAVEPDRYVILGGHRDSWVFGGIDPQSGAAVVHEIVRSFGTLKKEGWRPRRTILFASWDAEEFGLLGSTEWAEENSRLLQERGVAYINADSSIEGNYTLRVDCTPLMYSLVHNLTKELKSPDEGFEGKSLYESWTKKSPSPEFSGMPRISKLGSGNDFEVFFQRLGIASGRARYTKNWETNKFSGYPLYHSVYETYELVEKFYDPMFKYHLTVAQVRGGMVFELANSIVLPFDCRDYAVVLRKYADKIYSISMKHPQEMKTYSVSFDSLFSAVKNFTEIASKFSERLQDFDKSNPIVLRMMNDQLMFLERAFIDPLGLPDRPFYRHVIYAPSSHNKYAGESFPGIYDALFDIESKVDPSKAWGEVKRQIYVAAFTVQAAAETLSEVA

GCP II = GCP II (Homo sapiens, UniProt Q04609); experiment: NAAG cleavage assay with or without 2-PMPA; type: biochemical; conditions: 20 μM [3H]NAAG, 20 nM 2-PMPA, 1 hr at 37° C.; FIG. 1b
GCP II, sequence (Q04609 whole entry): as above
Procedure: The activity of endogenous or over-expressed Glutamate carboxypeptidase II protein (GCP II) was measured as follows. Cell lysate (50 μg) was incubated with 20 μM of N-acetyl-L-aspartyl-L-[3,4-3H] glutamate (NAAG; NEN corporation) with or without 20 nM 2-PMPA, a GCP II specific inhibitor, in a total volume of 100 μl containing 50 mM HEPES and 150 mM NaCl for 1 hr at 37° C. Upon completion of the reaction, sample mixture was loaded on AG 1-X8 anion-exchange resin (Biorad) prepared in 96 well columns, followed by centrifugation at 2000 rpm for 5 min. The resin bound with the sample mixture was eluted with 0.5 mM formate (100 ml) and centrifuged at 2000 rpm for 5 min. All the eluted samples were mixed with 1 ml of scintillation solution (Optiphase HiSafe; Wallac) and then radioactivity was measured by scintillation counter (Wallac Inc.).

[1] = biological target: recombinant human GCPII (rhGCP II) (Homo sapiens, UniProt Q04609); experiment: Effect of 2-PMPA on Aβ1-40 cleavage of rhGCP II (ELISA); type: biochemical; conditions: 2-PMPA added at different concentrations, FIG. 1a
recombinant human GCPII (rhGCP II), sequence (Q04609 whole entry): as above

Aβ [2] = experiment: Cleavage of exogenously treated Aβ in culture medium of transfected cells, ELISA; type: cell-based; conditions: 1 ng/ml Aβ one day after transfection, 8 hr at 37° C., FIG. 4c
Procedure: (§2) To identify Aβ clearance activity of GCP II mutants, various mutant plasmids were transfected in PC3 cells known not to express endogenous GCP II. After 48 hr, the cell lysates were mixed with Aβ (2 μM) and incubated for overnight. The remaining Aβ peptides were detected by dot blotting and western blotting using 6E10 antibody. […] The inventors of the present invention also measured cleavage activity of GCP II on exogenously treated Aβ peptides in culture medium by ELISA. One day after transfection, 1 ng/ml Aβ was treated into the medium, followed by incubation for 8 hr at 37° C. Similarly with western blotting, residual Aβ was reduced by K699S but not by G548P (see FIG. 4c).
Vectors encoding the hGCP II and various mutant hGCP II genes were transfected into PC3 cells in a 12-well plate. About 30 hr later, the culture medium was changed with fresh one treated with Aβ1-40 of Aβ1-42 peptide in the presence or absence of 2-PMPA, and the cells were incubated for another 8 hr. The medium was collected and assayed for residual Aβ1-40 or Aβ1-42 using ELISA kits (Invitrogen) following manufacturer's protocol. Cells transfected with the empty pcDNA3 empty vector were used as the negative control. […]

[3] = NAAG hydrolysis by GCP II mutants, lysate of transfected H4 cells; type: biochemical; conditions: H4 cell lysate, [3H]-labeled NAAG 20 μM, FIG. 3a
Procedure: The inventors of the present invention also investigated the changes of enzyme activity of GCP II mutant. To analyze enzyme activity of various mutants, mutant proteins with a substitution in the S1′ pocket (R210A, K699S) or S1 pocket (R536L, G548P) were transfected in H4 cells. To measure NAAG hydrolysis, cell lysate was incubated with [H]^3-labeled NAAG (20 μM) and GCP II specific […]. […] Additionally, to examine the effect of Aβ on NAAG cleavage of GCP II, rhGCP II was incubated with [H]^3-labeled NAAG (20 μM) and Aβ peptides at the same time. As a result, NAAG cleavage activity of GCP II was not affected by Aβ peptide (see FIG. 3b).
The activity of endogenous or over-expressed Glutamate carboxypeptidase II protein (GCP II) was measured as follows. Cell lysate (50 μg) was incubated with 20 μM of N-acetyl-L-aspartyl-L-[3,4-3H] glutamate (NAAG; NEN corporation) with or without 20 nM 2-PMPA, a GCP II specific inhibitor, in a total volume of 100 μl containing 50 mM HEPES and 150 mM NaCl for 1 hr at 37° C. Upon completion of the reaction, sample mixture was loaded on AG 1-X8 anion-exchange resin (Biorad) prepared in 96 well columns, followed by centrifugation at 2000 rpm for 5 min. […] All the eluted samples were mixed with 1 ml of scintillation solution (Optiphase HiSafe; Wallac) and then radioactivity was measured by scintillation counter (Wallac Inc.). […]

Aβ [4] = experiment: Aβ clearance activity of GCP II mutants, lysate of transfected PC3 cells, dot blotting and western blotting (6E10); type: biochemical; conditions: cell lysate 48 hr after transfection, Aβ 2 μM, overnight, FIGS. 4a, 4b
Procedure: as §2
48 hrs later, the cell lysate was mixed with Aβ (2 μM) and incubated for overnight.
To quantify the remaining Aβ peptides, the mixture of cell lysate and Aβ (2 μM) proceeded to dot blotting and the result was analyzed by the same manner as described in Example <2-2>. 1 μl of the mixture of cell lysate and Aβ (2 μM) was dropped on nitrocellulose membrane, which was then completely dried. The dried membrane proceeded to blocking with TBS-T containing 5% nonfat dry milk at room temperature for 1 hr. Then, the membrane was incubated with anti-Aβ antibody, 6E10 (SIGNET; SIG-39300, 1:2000) in 5% nonfat dry milk at 4° C. for overnight. […] After washing three times, proteins were detected using chemiluminescent substrate.

Aβ1-40 = Aβ1-40 cleavage by rhGCP II, residual Aβ by ELISA; type: biochemical; conditions: rhGCP II incubated with Aβ1-40, FIG. 1a
Procedure: as §1
As a result, rhGCP II cleaved Aβ1-40 peptides about 80 percent compared with the control, but 2-PMPA had no effect on Aβ1-40 cleavage of GCP II (see FIG. 1a). […] To investigate the effect of 2-PMPA in the mouse brain, 2-PMPA was treated into transgenic AD model mice. The inventors of the present invention used 2-PMPA (10 mg/kg, intraperitoneally, 2×/wk for 1 month) to treat 8-month old APP Swedish/PS1Δ9 transgenic mice. Aβ1-40 and Aβ1-42 levels in the cortical membrane fractions were analyzed by ELISA and NAAG cleavage activity of GCP II was measured by NAAG assay. As a result, cleavage of NAAG was reduced about 90 percent in 2-PMPA treated mouse compared with PBS control (see FIG. 1d). However, total levels of Aβ1-40 and Aβ1-42 were not changed by the treatment of 2-PMPA (see FIG. 1e). […]

O=C(O)CCC(CP(=O)(O)O)C(=O)O (stereo not drawn) [2-PMPA, 2-(Phosphonomethyl) pentanedioic acid]
total level of Aβ1-40 (Aβ1-40 and Aβ1-42): not changed
total level of Aβ1-42 (Aβ1-40 and Aβ1-42): not changed
Aβ1-40 cleavage of lentiviral GCP II (lentiviral GCP II): did not block
hydrolysis of NAAG by GCP II (GCP II): completely blocked
effect on Aβ1-40 cleavage of rhGCP II [1]: no effect

G548P: GCP II mutant protein with a substitution in the S1 pocket
residual Aβ in culture medium (Aβ [2]): not
activity of NAAG hydrolysis maintained compared with wild type GCP II ([3]; listed as R548P): about 40%
Aβ cleavage activity compared with wild type (Aβ [4]): lost Aβ cleavage activity; also recorded: did not; also recorded: lost its Aβ clearance activity

K699S: GCP II mutant: 699th amino acid Lysine replaced with Serine, SEQ ID. NO: 2; S1′ pocket mutant
residual Aβ in culture medium (Aβ [2]): reduced
activity of NAAG hydrolysis (in words) [3]: completely lost; also recorded: did not cleave
Aβ cleavage activity compared with wild type (Aβ [4]): higher Aβ cleavage activity than the wild type; also recorded: cleaved; also recorded: cleaved Aβ more than wild type

rhGCP II: recombinant human GCPII (glutamate carboxypeptidase II), wild type
Aβ1-40 peptide cleaved compared with control (Aβ1-40): about 80%
